From patent US11667649B2, “Heteroaromatic macrocyclic ether chemotherapeutic agents” (Nuvalent, Inc., priority 2020, dated 2023)

System: TPM3-NTRK1-wt IC50 / primary target (e.g. CD74-ROS1-wt) IC50, Ba/F3 cells
Experiment: Cell assay TRKA selectivity (TRKA potency divided by primary target potency)
Type: cell-based
Conditions: for TPM3-NTRK1-wt/CD74-ROS1-G2032R: TRKA selectivity ratio: TPM3-NTRK1-wt IC50 / CD74-ROS1-G2032R IC50, Ba/F3 cells; for TPM3-NTRK1-wt/CD74-ROS1-wt: TRKA selectivity ratio: TPM3-NTRK1-wt IC50 / CD74-ROS1-wt IC50, Ba/F3 cells; for TPM3-NTRK1-wt/EML4-ALK-L1196M-G1202R: TRKA selectivity ratio: TPM3-NTRK1-wt IC50 / EML4-ALK-L1196M-G1202R IC50, Ba/F3 cells; for TPM3-NTRK1-wt/EML4-ALK-wt: TRKA selectivity ratio: TPM3-NTRK1-wt IC50 / EML4-ALK-wt IC50, Ba/F3 cells
Summary of the method: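 IL-3-independent Ba/F3 lines stably expressing TPM3-TRKA or the primary fusion (e.g. CD74-ROS1 wt) were exposed to 3-fold compound dilutions for 72 h. Viability was read by CellTiter-Glo luminescence, with IC50 from four-parameter logistic fit. Selectivity is TPM3-NTRK1 IC50 divided by primary-target IC50, binned A (>30-fold) to D (<1).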

Row | Compound | TPM3-NTRK1-wt/CD74-ROS1-G2032R | TPM3-NTRK1-wt/CD74-ROS1-wt | TPM3-NTRK1-wt/EML4-ALK-L1196M-G1202R | TPM3-NTRK1-wt/EML4-ALK-wt
1 | CCn1cc2c(n1)-c1ccc(F)cc1[C@@H](C)Oc1cc(cnc1N)-c1c(cnn1CC1CC1)C2 [Example 140, (19R)-3-(cyclopropylmethyl)-10-ethyl-16-fluoro-19-methyl-20-oxa-3,4,10,11,23-pentaazapentacyclo[19.3.1.0^2,^6.0^8,^12.0^13,^18]pentacosa-1(24),2(6),4,8,11,13,15,17,21(25),22-decaen-22-amine] | A (bin A for very high selectivity, ratio>30-fold) | A (bin A for very high selectivity, ratio>30-fold) | A (bin A for very high selectivity, ratio>30-fold) | A (bin A for very high selectivity, ratio>30-fold)
2 | Cc1cc2n(n1)-c1ccc(F)cc1[C@@H](C)Oc1cc(cnc1N)-c1c(c(C)nn1CC1CC1)C2 [Example 141, (19R)-3-(cyclopropylmethyl)-16-fluoro-5,10,19-trimethyl-20-oxa-3,4,11,12,23-pentaazapentacyclo[19.3.1.0^2,^6.0^8,^12.0^13,^18]pentacosa-1(24),2(6),4,8,10,13,15,17,21(25),22-decaen-22-amine] | A (bin A for very high selectivity, ratio>30-fold) | A (bin A for very high selectivity, ratio>30-fold) | A (bin A for very high selectivity, ratio>30-fold) | A (bin A for very high selectivity, ratio>30-fold)
3 | CCn1nc(Cl)c2c1-c1cnc(N)c(c1)O[C@H](C)c1cc(F)cnc1-c1nn(C)cc1C2 [Example 142, (19R)-5-chloro-3-ethyl-16-fluoro-10,19-dimethyl-20-oxa-3,4,10,11,14,23-hexaazapentacyclo[19.3.1.0^2,^6.0^8,^12.0^13,^18]pentacosa-1(24),2(6),4,8,11,13,15,17,21(25),22-decaen-22-amine] | A (bin A for very high selectivity, ratio>30-fold) | – | B (bin B for high selectivity, ratio>10-fold) | –
4 | C[C@H]1Oc2cc(cnc2N)-c2c(C#N)nn(C)c2Cc2csnc2-c2ccc(F)cc21 [Example 143, (19R)-22-amino-16-fluoro-5,19-dimethyl-20-oxa-10-thia-4,5,11,23-tetraazapentacyclo[19.3.1.0^2,^6.0^8,^12.0^13,^18]pentacosa-1(24),2(6),3,8,11,13,15,17,21(25),22-decaene-3-carbonitrile] | A (bin A for very high selectivity, ratio>30-fold) | A (bin A for very high selectivity, ratio>30-fold) | B (bin B for high selectivity, ratio>10-fold) | A (bin A for very high selectivity, ratio>30-fold)
5 | COc1cc2n(n1)-c1ccc(F)cc1[C@@H](C)Oc1cc(cnc1N)-c1c(nnn1CC1CC1)C2 [Example 144, (19R)-3-(cyclopropylmethyl)-16-fluoro-10-methoxy-19-methyl-20-oxa-3,4,5,11,12,23-hexaazapentacyclo[19.3.1.0^2,^6.0^8,^12.0^13,^18]pentacosa-1(24),2(6),4,8,10,13,15,17,21(25),22-decaen-22-amine] | A (bin A for very high selectivity, ratio>30-fold) | A (bin A for very high selectivity, ratio>30-fold) | B (bin B for high selectivity, ratio>10-fold) | A (bin A for very high selectivity, ratio>30-fold)
6 | CCn1ncc2c1-c1cnc(N)c(c1)O[C@H](C)c1cc(F)ccc1-c1nc(OC)ccc1C2 [Example 145, (20R)-3-ethyl-17-fluoro-11-methoxy-20-methyl-21-oxa-3,4,12,24-tetraazapentacyclo[20.3.1.0^2,^6.0^8,^13.0^14,^19]hexacosa-1(25),2(6),4,8(13),9,11,14,16,18,22(26),23-undecaen-23-amine] | A (bin A for very high selectivity, ratio>30-fold) | A (bin A for very high selectivity, ratio>30-fold) | C (bin C for moderate selectivity, ratio≥1) | A (bin A for very high selectivity, ratio>30-fold)
7 | C[C@H]1Oc2cc(cnc2N)-c2c(CC3CC3)cnn2Cc2cccnc2-c2ccc(F)cc21 [Example 146, (20R)-3-(cyclopropylmethyl)-17-fluoro-20-methyl-21-oxa-5,6,12,24-tetraazapentacyclo[20.3.1.0^2,^6.0^8,^13.0^14,^19]hexacosa-1(25),2,4,8(13),9,11,14,16,18,22(26),23-undecaen-23-amine] | A (bin A for very high selectivity, ratio>30-fold) | A (bin A for very high selectivity, ratio>30-fold) | B (bin B for high selectivity, ratio>10-fold) | A (bin A for very high selectivity, ratio>30-fold)
8 | CCn1nc(OC)c2c1-c1cnc(N)c(c1)O[C@H](C)c1cc(F)ccc1-n1nc(C(F)F)cc1C2 [Example 147, (19R)-10-(difluoromethyl)-3-ethyl-16-fluoro-5-methoxy-19-methyl-20-oxa-3,4,11,12,23-pentaazapentacyclo[19.3.1.0^2,^6.0^8,^12.0^13,^18]pentacosa-1(24),2(6),4,8,10,13,15,17,21(25),22-decaen-22-amine] | A (bin A for very high selectivity, ratio>30-fold) | A (bin A for very high selectivity, ratio>30-fold) | C (bin C for moderate selectivity, ratio≥1) | A (bin A for very high selectivity, ratio>30-fold)
9 | CCn1ncc2c1-c1cnc(N)c(c1)O[C@H](C)c1cc(F)ccc1-c1ncc(OC)cc1C2 [Example 149, (20R)-3-ethyl-17-fluoro-10-methoxy-20-methyl-21-oxa-3,4,12,24-tetraazapentacyclo[20.3.1.0^2,^6.0^8,^13.0^14,^19]hexacosa-1(25),2(6),4,8(13),9,11,14,16,18,22(26),23-undecaen-23-amine] | B (bin B for high selectivity, ratio>10-fold) | A (bin A for very high selectivity, ratio>30-fold) | D (bin D for low selectivity, ratio<1) | B (bin B for high selectivity, ratio>10-fold)
10 | CCn1ncc2c1-c1cnc(N)c(c1)O[C@H](C)c1cc(F)ccc1-c1nn(C(C)(C)C)cc1C2 [Example 150, (19R)-10-tert-butyl-3-ethyl-16-fluoro-19-methyl-20-oxa-3,4,10,11,23-pentaazapentacyclo[19.3.1.0^2,^6.0^8,^12.0^13,^18]pentacosa-1(24),2(6),4,8,11,13,15,17,21(25),22-decaen-22-amine] | A (bin A for very high selectivity, ratio>30-fold) | A (bin A for very high selectivity, ratio>30-fold) | C (bin C for moderate selectivity, ratio≥1) | B (bin B for high selectivity, ratio>10-fold)
11 | CCn1ncc2c1-c1cnc(N)c(c1)O[C@H](C)c1cc(F)ccc1-c1nccc(OC)c1C2 [Example 151, (20R)-3-ethyl-17-fluoro-9-methoxy-20-methyl-21-oxa-3,4,12,24-tetraazapentacyclo[20.3.1.0^2,^6.0^8,^13.0^14,^19]hexacosa-1(25),2(6),4,8(13),9,11,14,16,18,22(26),23-undecaen-23-amine] | A (bin A for very high selectivity, ratio>30-fold) | A (bin A for very high selectivity, ratio>30-fold) | C (bin C for moderate selectivity, ratio≥1) | A (bin A for very high selectivity, ratio>30-fold)
12 | CCc1onc2c1-c1cnc(N)c(c1)O[C@H](C)c1cc(F)ccc1-c1nn(C)cc1C2 [Example 152, (19R)-3-ethyl-16-fluoro-10,19-dimethyl-4,20-dioxa-5,10,11,23-tetraazapentacyclo[19.3.1.0^2,^6.0^8,^12.0^13,^18]pentacosa-1(24),2,5,8,11,13,15,17,21(25),22-decaen-22-amine] | A (bin A for very high selectivity, ratio>30-fold) | A (bin A for very high selectivity, ratio>30-fold) | C (bin C for moderate selectivity, ratio≥1) | A (bin A for very high selectivity, ratio>30-fold)
13 | CC(C)Cn1ncc2c1-c1cnc(N)c(c1)O[C@H](C)c1cc(F)ccc1-c1nn(C)cc1C2 [Example 154, (19R)-16-fluoro-10,19-dimethyl-3-(2-methylpropyl)-20-oxa-3,4,10,11,23-pentaazapentacyclo[19.3.1.0^2,^6.0^8,^12.0^13,^18]pentacosa-1(24),2(6),4,8,11,13,15,17,21(25),22-decaen-22-amine] | A (bin A for very high selectivity, ratio>30-fold) | A (bin A for very high selectivity, ratio>30-fold) | B (bin B for high selectivity, ratio>10-fold) | A (bin A for very high selectivity, ratio>30-fold)
14 | CCc1nsc2c1-c1cnc(N)c(c1)O[C@H](C)c1cc(F)ccc1-c1nn(C)cc1C2 [Example 155, (19R)-3-ethyl-16-fluoro-10,19-dimethyl-20-oxa-5-thia-4,10,11,23-tetraazapentacyclo[19.3.1.0^2,^6.0^8,^12.0^13,^18]pentacosa-1(24),2(6),3,8,11,13,15,17,21(25),22-decaen-22-amine] | C (bin C for moderate selectivity, ratio≥1) | A (bin A for very high selectivity, ratio>30-fold) | D (bin D for low selectivity, ratio<1) | A (bin A for very high selectivity, ratio>30-fold)
